Patent US20200017495A1, “NOVEL HETEROCYCLIC COMPOUNDS AND THEIR USE IN PREVENTING OR TREATING BACTERIAL INFECTIONS” (priority 2017, published 2020)

System: Escherichia coli (ECO) isolates
Assay: MIC of compounds alone and combined with antibacterials, broth microdilution (CLSI)
Type: cell-based
Summary of the method: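 Broth microdilution in cation-adjusted Mueller-Hinton broth, inoculum 5.10^5 CFU/mL, 16-20 h at 35° C in ambient air, on genotyped isolates. Compound MIC, alone or with an antibacterial, taken visually as lowest concentration preventing growth; antibacterial MIC determined at each compound concentration.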

C=CC1=C(C(=O)O)N2C(=O)[C@@H](NC(=O)/C(=N\OCC(=O)O)c3csc(N)n3)[C@H]2SC1 [FIX, Cefixime]
MIC ATB in combination (ECO UFR18, AF3 @ 8 μg/mL): <0.25 µg/mL
MIC ATB in combination (ECO UFR18, CLA @ 4 μg/mL): >128 µg/mL
MIC ATB in combination (ECO UFR19, AF2 @ 8 μg/mL): <0.25 µg/mL
MIC ATB in combination (ECO UFR19, AF3 @ 8 μg/mL): <0.25 µg/mL
MIC ATB in combination (ECO UFR19, CLA @ 4 μg/mL): >128 µg/mL
MIC ATB in combination (ECO UFR32, AF2 @ 8 μg/mL): <0.25 µg/mL
MIC ATB in combination (ECO UFR32, AF3 @ 8 μg/mL): <0.25 µg/mL
MIC ATB in combination (ECO UFR32, CLA @ 4 μg/mL): 1 µg/mL
MIC ATB in combination (ECO UFR39, AF2 @ 8 μg/mL): <0.25 µg/mL
MIC ATB in combination (ECO UFR39, AF3 @ 8 μg/mL): <0.25 µg/mL
MIC ATB in combination (ECO UFR39, CLA @ 4 μg/mL): >128 µg/mL
MIC ATB in combination (ECO UFR41, AF2 @ 8 μg/mL): <0.25 µg/mL
MIC ATB in combination (ECO UFR41, AF3 @ 8 μg/mL): <0.25 µg/mL
MIC ATB in combination (ECO UFR41, CLA @ 4 μg/mL): >128 µg/mL
MIC ATB in combination (ECO UFR45, AF2 @ 8 μg/mL): <0.25 µg/mL
MIC ATB in combination (ECO UFR45, AF3 @ 8 μg/mL): <0.25 µg/mL
MIC ATB in combination (ECO UFR45, CLA @ 4 μg/mL): 32 µg/mL
MIC ATB in combination (ECO UFR52, AF2 @ 8 μg/mL): >128 µg/mL
MIC ATB in combination (ECO UFR52, AF3 @ 8 μg/mL): >128 µg/mL
MIC ATB in combination (ECO UFR52, CLA @ 4 μg/mL): >128 µg/mL
MIC ATB in combination (ECO UFR61O, AF2 @ 8 μg/mL): <=0.25 μg/mL
MIC ATB in combination (ECO UFR61O, AF3 @ 8 μg/mL): <0.25 µg/mL
MIC ATB in combination (ECO UFR61O, CLA @ 4 μg/mL): 32 µg/mL
MIC ATB in combination (ECO UFR62, AF2 @ 8 μg/mL): <0.25 µg/mL
MIC ATB in combination (ECO UFR62, AF3 @ 8 μg/mL): <0.25 µg/mL
MIC ATB in combination (ECO UFR62, CLA @ 4 μg/mL): 32 µg/mL
MIC ATB in combination (ECO UFR74, AF2 @ 8 μg/mL): <0.25 µg/mL
MIC ATB in combination (ECO UFR74, AF3 @ 8 μg/mL): <0.25 µg/mL
MIC ATB in combination (ECO UFR74, CLA @ 4 μg/mL): >128 µg/mL
MIC ATB in combination (ECO UFR86, AF2 @ 8 μg/mL): 0.5 µg/mL
MIC ATB in combination (ECO UFR86, AF3 @ 8 μg/mL): 0.5 µg/mL
MIC ATB in combination (ECO UFR86, CLA @ 4 μg/mL): 2 µg/mL
MIC ATB in combination (ECO UFR174, AF2 @ 8 μg/mL): <0.25 µg/mL
MIC ATB in combination (ECO UFR174, AF3 @ 8 μg/mL): <0.25 µg/mL
MIC ATB in combination (ECO UFR174, CLA @ 4 μg/mL): 2 µg/mL
MIC ATB in combination (ECO UFR175, AF2 @ 8 μg/mL): <0.25 µg/mL
MIC ATB in combination (ECO UFR175, AF3 @ 8 μg/mL): <=0.25 μg/mL
MIC ATB in combination (ECO UFR175, CLA @ 4 μg/mL): 16 µg/mL
MIC ATB in combination (ECO UFR176, AF2 @ 8 μg/mL): <0.25 µg/mL
MIC ATB in combination (ECO UFR176, AF3 @ 8 μg/mL): <0.25 µg/mL
MIC ATB in combination (ECO UFR176, CLA @ 4 μg/mL): 32 µg/mL
MIC ATB in combination (ECO UFR184, AF2 @ 8 μg/mL): <0.25 µg/mL
MIC ATB in combination (ECO UFR184, AF3 @ 8 μg/mL): <0.25 µg/mL
MIC ATB in combination (ECO UFR184, CLA @ 4 μg/mL): >128 µg/mL
MIC ATB in combination (ECO UFR208, AF2 @ 8 μg/mL): >128 µg/mL
MIC ATB in combination (ECO UFR208, AF3 @ 8 μg/mL): >128 µg/mL
MIC ATB in combination (ECO UFR208, CLA @ 4 μg/mL): >128 µg/mL
MIC ATB in combination (ECO UFR209, AF2 @ 8 μg/mL): <0.25 µg/mL
MIC ATB in combination (ECO UFR209, AF3 @ 8 μg/mL): <0.25 µg/mL
MIC ATB in combination (ECO UFR209, CLA @ 4 μg/mL): 1 µg/mL
MIC ATB in combination (ECO UFR210, AF2 @ 8 μg/mL): <0.25 µg/mL
MIC ATB in combination (ECO UFR210, AF3 @ 8 μg/mL): <0.25 µg/mL
MIC ATB in combination (ECO UFR210, CLA @ 4 μg/mL): 0.5 µg/mL
MIC ATB in combination (ECO UFR211, AF2 @ 8 μg/mL): <0.25 µg/mL
MIC ATB in combination (ECO UFR211, AF3 @ 8 μg/mL): <0.25 µg/mL
MIC ATB in combination (ECO UFR211, CLA @ 4 μg/mL): 2 µg/mL
MIC ATB in combination (ECO UFR212, AF2 @ 8 μg/mL): <0.25 µg/mL
MIC ATB in combination (ECO UFR212, AF3 @ 8 μg/mL): <0.25 µg/mL
MIC ATB in combination (ECO UFR212, CLA @ 4 μg/mL): >128 µg/mL
MIC ATB in combination (ECO URF20, AF2 @ 8 μg/mL): <=0.25 μg/mL
MIC ATB in combination (ECO URF20, AF3 @ 8 μg/mL): 2 µg/mL
MIC ATB in combination (ECO URF20, CLA @ 4 μg/mL): >128 µg/mL
MIC (strain ECO 4133, genotype TEM-30, OXA-1): 0.5 µg/mL
MIC (strain ECO 5302, genotype TEM-1, OXA-1): 0.5 µg/mL
MIC (strain ECO 131119, genotype TEM-1, OXA-48): <=0.25 μg/mL
MIC (strain ECO 180070, genotype TEM-1, CTX-M-15): 128 µg/mL
MIC (strain ECO 190314, genotype CTX-M-1): 16 µg/mL
MIC (strain ECO 190317, compound alone): >128 µg/mL
MIC (strain ECO 190317, genotype TEM-1, SHV-12, CTX-M-15, OXA-1): >128 µg/mL
MIC (strain ECO 190457, compound alone): 128 µg/mL
MIC (strain ECO 190457, genotype CTX-M-15, OXA-1): 128 µg/mL
MIC (strain ECO 190549, genotype CTX-M-1): 16 µg/mL
MIC (strain ECO 200159, genotype TEM-1, CTX-M-14): 8 µg/mL
MIC (strain ECO 200259, genotype CTX-M-14): 8 µg/mL
MIC (strain ECO 200344, genotype CTX-M-1): 32 µg/mL
MIC (strain ECO 260096, genotype CTX-M-132): >128 µg/mL
MIC (strain ECO 260304, genotype CTX-M-15): 32 µg/mL
MIC (strain ECO 260508, genotype TEM-1, CTX-M-15, OXA-1): >128 µg/mL
MIC (strain ECO RGN238, genotype OXA-1): <=0.25 μg/mL
MIC (strain ECO UFR15, genotype TEM-1, OXA-48): 1 µg/mL
MIC (strain ECO UFR16, compound alone): >128 µg/mL
MIC (strain ECO UFR16, genotype TEM-1, CTX-M-15, OXA-1, OXA-48): >128 µg/mL
MIC (strain ECO UFR17, genotype TEM-1, CTX-M-15, CMY-2, OXA-1, OXA-181): >128 µg/mL
MIC (strain ECO UFR18, genotype CTX-M-15, OXA-204): >128 µg/mL
MIC (strain ECO UFR19, genotype CTX-M-15, CMY-2, OXA-1, OXA-204): >128 µg/mL
MIC (strain ECO UFR20, compound alone): 512 µg/mL
MIC (strain ECO UFR20, genotype SHV-1, CTX-M-15, OXA-1, OXA-232): 512 µg/mL
MIC (strain ECO UFR32, genotype TEM-1, VEB-1, OXA-10): 128 µg/mL
MIC (strain ECO UFR39, genotype CTX-M-15, NDM-1): >128 µg/mL
MIC (strain ECO UFR41, genotype TEM-1, CTX-M-15, CMY-2, OXA-1, NDM-4): >128 µg/mL
MIC (strain ECO UFR45, genotype TEM-1, CMY-4, OXA-1, OXA-48, VIM-1): >128 µg/mL
MIC (strain ECO UFR52, genotype TEM-1, SHV-12, IMP-8): >128 µg/mL
MIC (strain ECO UFR61O, compound alone): 32 µg/mL
MIC (strain ECO UFR61O, genotype TEM-1, KPC-2): 32 µg/mL
MIC (strain ECO UFR62, genotype TEM-1, CTX-M-9, KPC-2): 128 µg/mL
MIC (strain ECO UFR74, genotype SHV-1, DHA-1): >128 µg/mL
MIC (strain ECO UFR86, genotype ompC-, ompF-): 2 µg/mL
MIC (strain ECO UFR174, genotype TEM-1, KPC-2, OXA-1): 8 µg/mL
MIC (strain ECO UFR175, genotype TEM-1, KPC-2, OXA-9): 64 µg/mL
MIC (strain ECO UFR176, genotype KPC-3, OXA-9*): 64 µg/mL
MIC (strain ECO UFR177, genotype TEM-1, CTX-M-15, OXA-1, OXA-2, NDM-1, RmtC, antibiotic alone): >128 µg/mL
MIC ATB in combination (strain ECO UFR177, with AF2 @ 8 μg/mL): <=0.25 μg/mL
MIC ATB in combination (strain ECO UFR177, with AF3 @ 8 μg/mL): <0.25 µg/mL
MIC ATB in combination (strain ECO UFR177, with CLA @ 4 μg/mL): >128 µg/mL
MIC (strain ECO UFR178, genotype TEM-1, CTX-M-15, OXA-9, NDM-1, antibiotic alone): >128 µg/mL
MIC ATB in combination (strain ECO UFR178, with AF2 @ 8 μg/mL): <0.25 µg/mL
MIC ATB in combination (strain ECO UFR178, with AF3 @ 8 μg/mL): <0.25 µg/mL
MIC ATB in combination (strain ECO UFR178, with CLA @ 4 μg/mL): >128 µg/mL
MIC (strain ECO UFR179, genotype TEM-1, SHV-12, CTX-M-15, NDM-1, antibiotic alone): >128 µg/mL
MIC ATB in combination (strain ECO UFR179, with AF2 @ 8 μg/mL): <0.25 µg/mL
